Data on 73 molecules can be found in PubChem BioAssay AID1996.

≈ marks a conversion by molar mass, not a printed value. Some results are limits rather than exact numbers.

The conditions of the data set: buffer; pH 7.4; 200.0 µM.
As for `Cc1oncc1C(=O)Nc1ccc2ccccc2c1`, the kinetic solubility stood at 9.8 µg/mL (≈ 38.8 µM).

As to `CC(=O)N/C(=C\c1ccccc1)C(=O)OC/C=C/c1ccccc1`, the solubility (kinetic) is 47.3 µg/mL (≈ 147 µM). As for `Cc1noc(NS(=O)(=O)c2ccc(NC(=O)COc3ccc(C#N)cc3)cc2)c1C`, the figure is more than 64 µg/mL; as for `OCCCNc1ncnc2scc(-c3ccc(Cl)cc3)c12`, more than 48 µg/mL. For `CCC1CN(C(=O)NCc2ccccc2)c2ccccc2O1` (stereo not drawn), the kinetic solubility stood at 43.2 µg/mL (≈ 146 µM). As for `O=C(CSC1=NCCN1)Nc1ccccc1[N+](=O)[O-]`, the figure is more than 42 µg/mL. Molecule `Cc1ccc(N(CC(=O)NC2CCCC2)C(=O)c2ccc(C)s2)cc1` came in with a solubility (kinetic) of 49.2 µg/mL (≈ 138 µM). On to `Cc1cc(Cl)ccc1NC(=O)CCC(=O)N/N=C/c1cccnc1`, for which the kinetic solubility is more than 51.7 µg/mL. As for `CC(C)CN(C(=O)CN(C)CC(=O)Nc1ccc(Cl)c(C(F)(F)F)c1)c1c(N)n(CC(C)C)c(=O)[nH]c1=O`, the figure is 6 µg/mL (≈ 10.7 µM).

Molecule `CC1CCC(NC(=O)CN(C)S(=O)(=O)c2cnc[nH]2)CC1` (stereo not drawn) yielded a solubility (kinetic) of more than 47.2 µg/mL. Under `O=C(/C=C/c1ccccc1Cl)Nc1cccnc1` stands 27 µg/mL (≈ 104 µM); under `COc1ccc(-c2csc(NC(=O)[C@H](C)N3C(=O)C4CC=CCC4C3=O)n2)cc1OC` (stereo partly drawn), 38.2 µg/mL (≈ 86.5 µM); under `Cc1nc(C2COc3ccccc3O2)sc1C(=O)O` (stereo not drawn), 35 µg/mL (≈ 126 µM). Under `C=CCNc1nc(Cl)nc(Nc2cc(Cl)ccc2OC)n1` stands less than 0.1 µg/mL; under `COc1cc(C(=O)NNC(=O)C2CCCC2)cc(OC)c1OC`, more than 48.4 µg/mL. As for `CCN1C=C(C(=O)OC)C(c2cccc(OC)c2OC)C(C(=O)OC)=C1`, the figure is 8.4 µg/mL (≈ 23.2 µM); as for `Cc1cccc(OCc2nc(C#N)c(N3CCCC3)o2)c1`, 9.6 µg/mL (≈ 33.9 µM); as for `N#Cc1cccc2cccc(S(=O)(=O)N3CCOCC3)c12`, 14.9 µg/mL (≈ 49.3 µM). The molecule `O=C(Cc1ccccc1)Nc1ccc(NC(=O)c2ccco2)cc1Cl` had a kinetic solubility of 2.4 µg/mL (≈ 6.76 µM). `CC(OC(=O)CC1CCCC1)C(=O)Nc1ccc(Cl)cn1` (stereo not drawn) registered a solubility (kinetic) of 30.9 µg/mL (≈ 99.4 µM).

The molecule `OCC1OC(Oc2c[nH]c3ccccc23)C(O)C(O)C1O` (stereo not drawn) showed a solubility (kinetic) of more than 44.3 µg/mL.

Molecule `N#Cc1c(-c2ccccc2)nc(SCc2ccc([N+](=O)[O-])cc2)[nH]c1=O` returned a solubility (kinetic) of 52 µg/mL (≈ 143 µM). Under `Cc1cccc2sc(N(CCN(C)C)C(=O)c3ccc4ccccc4c3)nc12.Cl` stands 0.4 µg/mL. Under `CN1C(=O)/C(=C\c2ccc(N3CCCCCC3)cc2)C(=O)NC1=S` stands 2.7 µg/mL (≈ 7.86 µM); under `CCN(Cc1cnn(C)c1)Cc1nc(Cc2ccccc2Cl)no1`, more than 51.9 µg/mL; under `COC(=O)c1ccc(CNC(=O)c2ccc(S(=O)(=O)N3CCCCCC3)cc2)cc1`, 3.6 µg/mL (≈ 8.36 µM). As for `O=C(c1cc(-c2ccc(Cl)cc2Cl)on1)N1CCCCCC1`, the figure is 4.1 µg/mL (≈ 12.1 µM); as for `CC1Cc2ccccc2N1C(=S)NC1CCCC1` (stereo not drawn), 13.7 µg/mL (≈ 52.6 µM). The molecule `COc1cccc(NC(=O)NCCN2CCCCC2)c1` showed a kinetic solubility of 37.8 µg/mL (≈ 136 µM). Under `O=C(Nc1cccc(Cl)c1)C1=CC=CN2CCS(=O)(=O)N=C12` stands 7.1 µg/mL (≈ 21 µM); under `O=C(NC(Cc1ccccc1)C(=O)NC1CC1)OCc1ccccc1` (stereo not drawn), 11.5 µg/mL (≈ 34 µM); under `C=CCC1(Nc2ccccc2)CC(C)N(C)CC1C.O=C(O)C(=O)O` (stereo not drawn), more than 52.3 µg/mL.

`Cc1cc(C)nc(SCC(=O)c2ccc(Cl)cc2)n1` came in with a solubility (kinetic) of 33.5 µg/mL (≈ 114 µM).

`CCCCC(C(=O)NC(C)c1ccccc1)C(=O)NC(C)c1ccccc1` (stereo not drawn) registered a kinetic solubility of 1.5 µg/mL (≈ 4.09 µM). As for `COC(=O)c1c(C)[nH]c(C=O)c1-c1ccccc1`, the figure is more than 36.5 µg/mL; as for `O=C(Cc1ccccc1)NN1CCCCC1`, more than 32.7 µg/mL. Under `C=CCS(=O)(=O)N1CCCC(N(C)CCc2ccc(OC)c(OC)c2)C1` (stereo not drawn) stands 44.4 µg/mL (≈ 116 µM).

`Cc1ccc(CNC(=O)C(Cc2ccccc2)n2cccc2)cc1` (stereo not drawn): the solubility (kinetic) amounted to 5.3 µg/mL (≈ 16.6 µM).

Consider `CN(C)CCCNC(=O)c1ccccc1Oc1ccccc1`, for which the solubility (kinetic) is more than 44.8 µg/mL. `COc1ccc(C(=O)/C=C/c2cccnc2)c(OC)c1` returned a kinetic solubility of more than 40.4 µg/mL. Under `CCC(C)(CCNC(=O)Cc1ccccc1)c1ccccc1OC` (stereo not drawn) stands 15 µg/mL (≈ 46.1 µM); under `CCOc1ccc(N2C(=O)CC(NCC#N)C2=O)cc1` (stereo not drawn), more than 41 µg/mL; under `O=C(CSc1ncnc2sc3c(c12)CCCC3)NC1CCS(=O)(=O)C1` (stereo not drawn), 18.6 µg/mL (≈ 46.8 µM). As for `Cc1ccccc1OCC(=O)NC(C)c1ccccc1` (stereo not drawn), the figure is 39.8 µg/mL (≈ 148 µM). As for `CCOc1ccc(NC(=O)CCC(=O)Oc2ccc(C)cc2)cc1`, the figure is 19.5 µg/mL (≈ 59.6 µM); as for `Cc1ccccc1C(=O)/C=C1/SCC(=O)N1C`, more than 37.1 µg/mL; as for `Cc1sc2ncnc(SCC(=O)N(C(C)C)C(C)C)c2c1C`, 1.6 µg/mL (≈ 4.74 µM).

The molecule `C=CCOc1ccc(C2NC(=O)c3ccccc3O2)cc1OCC` (stereo not drawn) came in with a kinetic solubility of 2.6 µg/mL (≈ 7.99 µM). As for `Nc1nc(-c2ccccc2)cc(-c2ccccc2)n1`, the figure is 2.6 µg/mL (≈ 10.5 µM); as for `Cc1nc2ccccn2c1C(=O)NNC(=O)Nc1cccc(C(F)(F)F)c1`, more than 56.6 µg/mL; as for `COc1ccccc1CNC(=O)CN1C(=O)NC2(CCCCCC2)C1=O`, more than 53.9 µg/mL.

`O=C1c2cccnc2C(=O)N1CNc1ccc(Cl)cc1` gave a solubility (kinetic) of 34.5 µg/mL (≈ 120 µM).

The molecule `CCOC(=O)C1(CCOC)CCN(Cc2ccncc2)CC1` had a solubility (kinetic) of more than 46 µg/mL. Under `N=C1SCC(=O)N1c1ccc(Cl)cc1` stands more than 34 µg/mL; under `Cc1ccc(CS(=O)(=O)c2nc3c(c(N(C)C)n2)CCCC3)cc1`, 46 µg/mL (≈ 133 µM); under `COC(=O)c1cccc(CSC(=S)N2CCCC2)c1`, 3.6 µg/mL (≈ 12.2 µM).

The molecule `O=S(=O)(c1ccc(Cl)s1)N1CCCCC1` displayed a kinetic solubility of 22 µg/mL (≈ 82.8 µM). Molecule `Cc1cc(NC(=O)c2cc([N+](=O)[O-])ccc2Cl)no1` came in with a solubility (kinetic) of more than 42.2 µg/mL. As for `Cc1cccc(NC(=O)c2ccc3nccnc3c2)n1`, the figure is more than 39.6 µg/mL; as for `COc1ccc(-c2c(NCCc3ccccc3)c(=O)c2=O)cc1`, 1 µg/mL (≈ 3.25 µM). Under `CC1CCCC(C)N1C(=O)CN1c2cccc3cccc(c23)S1(=O)=O` (stereo not drawn) stands 6.7 µg/mL (≈ 18.7 µM); under `COc1ccc(/C=N/OC(=O)c2ccc(Cl)cc2)c(Cl)c1OC`, less than 0.8 µg/mL. Turning to `CCC(C)NC(=O)c1ccc(-n2c(=S)[nH]c3ccccc3c2=O)cc1` (stereo not drawn), the kinetic solubility came to 3.7 µg/mL (≈ 10.5 µM). `O=C(NCCCn1ccnc1)c1ccccc1Cl` returned a kinetic solubility of more than 39.6 µg/mL. As for `O=Cc1cccn1-c1ncc(Br)cn1`, the figure is 30.6 µg/mL (≈ 121 µM). Under `COc1cc(C(=O)NCCNC(=O)C2CCCNC2=O)cc(OC)c1OC` (stereo not drawn) stands more than 56.9 µg/mL; under `CCc1ccc(CN(C)Cc2nc(COc3ccccc3)no2)nc1`, 36.7 µg/mL (≈ 108 µM). As for `C=CCn1c(O)c(C(CC)=Nc2ccc(N(C)C)cc2)c(=O)[nH]c1=O`, the figure is 1.5 µg/mL (≈ 4.38 µM); as for `COc1cc2nc(Nc3ccc(F)cc3)nc(N)c2cc1OC.Cl`, more than 52.6 µg/mL.

`CCOC(=O)c1cc(COc2cc(Cl)cc(Cl)c2)on1` registered a kinetic solubility of less than 0.7 µg/mL. Under `Cc1cc(SC(C)C(=O)O)nc2ccccc12` (stereo not drawn) stands more than 37.1 µg/mL. Take `Cc1cc(=O)oc2cc(OCC(=O)NCC3CCC(C(=O)O)CC3)ccc12` (stereo not drawn): the kinetic solubility was more than 56 µg/mL.

Consider `Cc1cc(C)cc(C(=O)Nc2nc3ccccc3[nH]2)c1`, for which the solubility (kinetic) was 1.4 µg/mL (≈ 5.28 µM).

A word on the kinetic solubility: it is solubility judged after dilution from a stock solution rather than from solid.
